# Results from patent US8932597B2 (priority 2008, dated 2015).
# Tested on: anti-M2 human monoclonal antibody Z3G1
# Type: binding
Substance,Signal (peptides that bind to Z3G1),other results
1515 (CETPIRNEWGLLTEVETPICETPIRNEWG; epitope peptide; MISC_FEATURE (1)..(1): C is an attachment site for a CLIP; MISC_FEATURE (10)..(10): G is an attachment site for a CLIP; MISC_FEATURE (11)..(11): L is an attachment site for a CLIP; MISC_FEATURE (29)..(29): G is an attachment site for a CLIP) [compound 1515],–,Signal (peptides that show specific binding to Z3G1): 2427
1512 (CTEVETPIRNLLTEVETPICETPIRNEWG; epitope peptide; MISC_FEATURE (1)..(1): C is an attachment site for a CLIP; MISC_FEATURE (10)..(10): N is an attachment site for a CLIP; MISC_FEATURE (11)..(11): L is an attachment site for a CLIP; MISC_FEATURE (29)..(29): G is an attachment site for a CLIP) [compound 1512],–,Signal (peptides that show specific binding to Z3G1): 2645
1331 (MSLLCEVCTPIRNE; epitope peptide) [compound 1331],2601,–
1336 (MSLLCEVGMSCLTEV; epitope peptide) [compound 1336],2846,–
1383 (CLLTEVECPIRNEWG; epitope peptide) [compound 1383],2157,–
1359 (CLLTEVCTPIRNE; epitope peptide) [compound 1359],1585,–
1260 (MNLLTEVETPIRNEWGCRCN; epitope peptide) [compound 1260],2733,–
1296 (MSLLYEVETPIRNEWGCRCN; epitope peptide) [compound 1296],2464,–
1569 (KLLTEVETPIRNEWGCRCNDSSD; epitope peptide) [compound 1569],–,Signal (peptides that show specific binding to Z3G1): 1826
1565 (FLLTEVETPIRNEWGCRCNDSSD; epitope peptide) [compound 1565],–,Signal (peptides that show specific binding to Z3G1): 1018
1266 (MYLLTEVETPIRNEWGCRCN; epitope peptide) [compound 1266],1960,–
1306 (MSLLTEVLTPIRNEWGCRCN; epitope peptide) [compound 1306],2714,–
1287 (MSLLLEVETPIRNEWGCRCN; epitope peptide) [compound 1287],2804,–
1445 (CVETPIRNEWLLTEVETPICLTEVETPIR; epitope peptide; MISC_FEATURE (1)..(1): C is an attachment site for a CLIP; MISC_FEATURE (10)..(10): W is an attachment site for a CLIP; MISC_FEATURE (11)..(11): L is an attachment site for a CLIP; MISC_FEATURE (29)..(29): R is an attachment site for a CLIP) [compound 1445],2280,–
1577 (SLDTEVETPIRNEWGCRCNDSSD; epitope peptide) [compound 1577],–,Signal (peptides that show specific binding to Z3G1): 1505
1348 (MSLCTEVGCSCLCEV; epitope peptide) [compound 1348],2001,–
1308 (MSLLTEVPTPIRNEWGCRCN; epitope peptide) [compound 1308],2380,–
1552 (SLLCEVGSLCTEV; epitope peptide) [compound 1552],–,Signal (peptides that show specific binding to Z3G1): 2722
1254 (MGLLTEVETPIRNEWGCRCN; epitope peptide) [compound 1254],2635,–

Substance,Signal (peptides that bind to Z3G1),other results
MSLLTEVETPIRNEWGCRCN (epitope peptide) [SEQ ID NO: 1149],–,Binding to Z3G1 (in words): very best specific binder
1374 (SLLTEVETPIRNECGC; epitope peptide) [compound 1374],1660,–
1481 (CVETPIRNEWLLTEVETPICEVETPIRNE; epitope peptide; MISC_FEATURE (1)..(1): C is an attachment site for a CLIP; MISC_FEATURE (10)..(10): W is an attachment site for a CLIP; MISC_FEATURE (11)..(11): L is an attachment site for a CLIP; MISC_FEATURE (29)..(29): E is an attachment site for a CLIP) [compound 1481],1592,–
1368 (SLLTEVETPCRNE; epitope peptide) [compound 1368],1665,–
1269 (MSVLTEVETPIRNEWGCRCN; epitope peptide) [compound 1269],2111,–
1371 (SLLCEVETPIRNE; epitope peptide) [compound 1371],2511,–
1303 (MSLLTEVHTPIRNEWGCRCN; epitope peptide) [compound 1303],2751,–
1298 (MSLLTTVETPIRNEWGCRCN; epitope peptide) [compound 1298],2699,–
1304 (MSLLTEVITPIRNEWGCRCN; epitope peptide) [compound 1304],2668,–
1573 (QLLTEVETPIRNEWGCRCNDSSD; epitope peptide) [compound 1573],–,Signal (peptides that show specific binding to Z3G1): 1627
1494 (CLTEVETPIRLLTEVETPICVETPIRNEW; epitope peptide; MISC_FEATURE (1)..(1): C is an attachment site for a CLIP; MISC_FEATURE (10)..(10): R is an attachment site for a CLIP; MISC_FEATURE (11)..(11): L is an attachment site for a CLIP; MISC_FEATURE (29)..(29): W is an attachment site for a CLIP) [compound 1494],2443,–
1495 (CTEVETPIRNLLTEVETPICVETPIRNEW; epitope peptide; MISC_FEATURE (1)..(1): C is an attachment site for a CLIP; MISC_FEATURE (10)..(10): N is an attachment site for a CLIP; MISC_FEATURE (11)..(11): L is an attachment site for a CLIP; MISC_FEATURE (29)..(29): W is an attachment site for a CLIP) [compound 1495],2088,–
1268 (MSMLTEVETPIRNEWGCRCN; epitope peptide) [compound 1268],1329,–
1387 (SLLCEVETPIRNEWC; epitope peptide) [compound 1387],2406,–
1314 (CMSLCTEVETPIRNE; epitope peptide) [compound 1314],1705,–
1363 (SLLCEVETPICNE; epitope peptide) [compound 1363],1921,–
1361 (SLLCEVETPIRNC; epitope peptide) [compound 1361],2460,–
1588 (SLLREVETPIRNEWGCRCNDSSD; epitope peptide) [compound 1588],–,Signal (peptides that show specific binding to Z3G1): 2286
1302 (MSLLTEVGTPIRNEWGCRCN; epitope peptide) [compound 1302],2789,–

Substance,Signal (peptides that bind to Z3G1),other results
1482 (CETPIRNEWGLLTEVETPICEVETPIRNE; epitope peptide; MISC_FEATURE (1)..(1): C is an attachment site for a CLIP; MISC_FEATURE (10)..(10): G is an attachment site for a CLIP; MISC_FEATURE (11)..(11): L is an attachment site for a CLIP; MISC_FEATURE (29)..(29): E is an attachment site for a CLIP) [compound 1482],1648,–
1273 (MSLMTEVETPIRNEWGCRCN; epitope peptide) [compound 1273],2804,–
1364 (SLLCEVETPCRNE; epitope peptide) [compound 1364],2035,–
1357 (CLLTEVETCIRNE; epitope peptide) [compound 1357],1661,–
1586 (SLLLEVETPIRNEWGCRCNDSSD; epitope peptide) [compound 1586],–,Signal (peptides that show specific binding to Z3G1): 2344
1571 (NLLTEVETPIRNEWGCRCNDSSD; epitope peptide) [compound 1571],–,Signal (peptides that show specific binding to Z3G1): 2135
1459 (CTEVETPIRNLLTEVETPICTEVETPIRN; epitope peptide; MISC_FEATURE (1)..(1): C is an attachment site for a CLIP; MISC_FEATURE (10)..(10): N is an attachment site for a CLIP; MISC_FEATURE (11)..(11): L is an attachment site for a CLIP; MISC_FEATURE (29)..(29): N is an attachment site for a CLIP) [compound 1459],1749,–
1396 (SLLCEVETPIRNEWG; epitope peptide) [compound 1396],2384,–
1330 (MSLLCEVECPIRNE; epitope peptide) [compound 1330],2606,–
1575 (WLLTEVETPIRNEWGCRCNDSSD; epitope peptide) [compound 1575],–,Signal (peptides that show specific binding to Z3G1): 2180
1391 (SLLCEVETPICNEWG; epitope peptide) [compound 1391],2536,–
1297 (MSLLTQVETPIRNEWGCRCN; epitope peptide) [compound 1297],1697,–
1557 (CLCTCVGSLLCEV; epitope peptide) [compound 1557],–,Signal (peptides that show specific binding to Z3G1): 2246
1294 (MSLLVEVETPIRNEWGCRCN; epitope peptide) [compound 1294],2732,–
1291 (MSLLQEVETPIRNEWGCRCN; epitope peptide) [compound 1291],2792,–
1341 (MSLLCEVGMSLLCEV; epitope peptide) [compound 1341],2851,–
1259 (MMLLTEVETPIRNEWGCRCN; epitope peptide) [compound 1259],2666,–
1313 (CMSLLCEVETPIRNE; epitope peptide) [compound 1313],2582,–
